Carcinogen call data for seven molecules are collected here from PubChem BioAssay AID1259411 (Chemical Carcinogenesis Research Information System (CCRIS), 2018).

SMILES strings stand for the structures. The source made the active and inactive calls. The rule behind the calls is not given here.

The data set relates to rodent carcinogenicity bioassays, tumor incidence. Put plainly: CCRIS carcinogenicity studies. The procedure, abridged: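 NCI-built, expert-reviewed records of carcinogenicity and related test outcomes (mutagenicity, tumor promotion/inhibition) compiled from published and report sources, historical span 1985-2011, not updated.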

As for `CCCCCCCCN(C)N=O`, the carcinogen call reads like this: (Species: HAMSTER, Strain/Sex: SYRIAN/FEMALE, Route: GAVAGE, Dose: 0, 7.4 MG/KG 1/WK FOR 40 WK (TOTAL DOSE: 0; 2.1 MMOL) (STUDY DURATION: LIFETIME), Dose: 0, 7.4 MG/KG 1/WK FOR 40 WK (TOTAL DOSE: 0; 2.1 MMOL) (STUDY DURATION: LIFETIME), Tumor Site: Type of Lesion: LIVER: HEPATOCELLULAR ADENOMA, LUNG: ALVEOLAR/BRONCHIAL ADENOMA, NASAL MUCOSA: ADENOMA, URINARY BLADDER: SARCOMA, UNDIFF, Tumor Site: Type of Lesion: LIVER: HEPATOCELLULAR ADENOMA, LUNG: ALVEOLAR/BRONCHIAL ADENOMA, NASAL MUCOSA: ADENOMA, URINARY BLADDER: SARCOMA, UNDIFF) “active; positive”; (Species: HAMSTER, Strain/Sex: SYRIAN/MALE, Route: GAVAGE, Dose: 0, 7.4 MG/KG 1/WK FOR 40 WK (TOTAL DOSE: 0; 2.1 MMOL) (STUDY DURATION: LIFETIME), Dose: 0, 7.4 MG/KG 1/WK FOR 40 WK (TOTAL DOSE: 0; 2.1 MMOL) (STUDY DURATION: LIFETIME), Tumor Site: Type of Lesion: LIVER: HEPATOCELLULAR ADENOMA, CHOLANGIOMA, HEMANGIOSARCOMA, LUNG: ALVEOLAR/ BRONCHIAL ADENOMA, NASAL MUCOSA: ADENOMA, U, Tumor Site: Type of Lesion: LIVER: HEPATOCELLULAR ADENOMA, CHOLANGIOMA, HEMANGIOSARCOMA, LUNG: ALVEOLAR/ BRONCHIAL ADENOMA, NASAL MUCOSA: ADENOMA, U) “active; positive”; (Species: RAT, Strain/Sex: F344/MALE, Route: GAVAGE, Dose: 0, 93 MG/ML IN CORN OIL 2/WK FOR 30 WK, STUDY DURATION: 50 WK, Dose: 0, 93 MG/ML IN CORN OIL 2/WK FOR 30 WK, STUDY DURATION: 50 WK, Tumor Site: Type of Lesion: LUNG: ADENOCARCINOMA, ADENOMA, NASAL CAVITY: CARCINOMA, LIVER: HEPATOCELLULAR TUMOR, BLADDER, Tumor Site: Type of Lesion: LUNG: ADENOCARCINOMA, ADENOMA, NASAL CAVITY: CARCINOMA, LIVER: HEPATOCELLULAR TUMOR, BLADDER) “active; positive”.

Consider `C[C@H]1[C@H](c2ccc(Cl)cc2)SC(=O)N1C(=O)NC1CCCCC1`, for which the carcinogen call by setting is: (Species: Rat, Strain/Sex: Fischer 344/Female (70/Group), Route: Oral, Dose: 0, 60, 430, 3000 ppm in diet for 24 mo, study duration 24 mo, Dose: 0, 60, 430, 3000 ppm in diet for 24 mo, study duration 24 mo) “inactive; negative”; (Species: Rat, Strain/Sex: Fischer 344/Male (70/Group), Route: Oral, Dose: 0, 60, 430, 3000 ppm in diet for 24 mo, study duration 24 mo, Dose: 0, 60, 430, 3000 ppm in diet for 24 mo, study duration 24 mo, Tumor Site: Type of Lesion: Mammary gland: fibroadenoma (0, 1, 2, 6)) “active; positive. (department of pesticides regulation reviewer describes as possible ad”.

Regarding `Cc1cc(-c2ccc(N/N=C3\C=Cc4c(S(=O)(=O)O)cc(S(=O)(=O)O)c(N)c4C3=O)c(C)c2)ccc1N/N=C1\C=Cc2c(S(=O)(=O)O)cc(S(=O)(=O)O)c(N)c2C1=O`, the carcinogen call (Species: RAT, Route: INTRAPERITONEAL, Tumor Site: Type of Lesion: LIVER) was “active; positive”.

As to `CCNc1nc(Cl)nc(NC(C)(C)C#N)n1`, the carcinogen call runs as follows: (Species: Mouse, Strain/Sex: CD/Female (50 per group; 100 per group for controls), Route: Oral, Dose: 0, 10, 25, 1,000 ppm of 98% pure cyanazine in feed for two yr, Dose: 0, 10, 25, 1,000 ppm of 98% pure cyanazine in feed for two yr) “inactive; negative”; (Species: Mouse, Strain/Sex: CD/Male (50 per group; 100 per group for controls), Route: Oral, Dose: 0, 10, 25, 1,000 ppm of 98% pure cyanazine in feed for two yr, Dose: 0, 10, 25, 1,000 ppm of 98% pure cyanazine in feed for two yr) “inactive; negative”; (Species: RAT, Strain/Sex: CRL:CD BR/FEMALE, Route: ORAL, Dose: 0, 1, 5, 25, 50 PPM FOR 104 WK (STUDY DURATION: 104 WK), Dose: 0, 1, 5, 25, 50 PPM FOR 104 WK (STUDY DURATION: 104 WK)) “inactive; negative”.

`O=CNC(N1CCOCC1)C(Cl)(Cl)Cl` (configuration not stated): the carcinogen call was “inactive; negative” (Species: RAT, Strain/Sex: WISTAR/FEMALE, Route: ORAL, Dose: 0, 67, 330, 665 MG/KG IN DIET LESS THAN 2 YR (STUDY DURATION: LESS THAN 2 YR), Dose: 0, 67, 330, 665 MG/KG IN DIET LESS THAN 2 YR (STUDY DURATION: LESS THAN 2 YR)) and “inactive; negative” (Species: RAT, Strain/Sex: WISTAR/MALE, Route: ORAL, Dose: 0, 67, 330, 665 MG/KG IN DIET LESS THAN 2 YR (STUDY DURATION: LESS THAN 2 YR), Dose: 0, 67, 330, 665 MG/KG IN DIET LESS THAN 2 YR (STUDY DURATION: LESS THAN 2 YR)).

`P`: the carcinogen call runs as follows: (Species: RAT, Strain/Sex: F344/FEMALE, Route: INHALATION, Dose: 0, 0.3, 1.0, 3.0 PPM 6 HR/D 5 D/WK FOR 104 WK (STUDY DURATION: 104 WK), Dose: 0, 0.3, 1.0, 3.0 PPM 6 HR/D 5 D/WK FOR 104 WK (STUDY DURATION: 104 WK)) “inactive; negative”; (Species: RAT, Strain/Sex: F344/MALE, Route: INHALATION, Dose: 0, 0.3, 1.0, 3.0 PPM 6 HR/D 5 D/WK FOR 104 WK (STUDY DURATION: 104 WK), Dose: 0, 0.3, 1.0, 3.0 PPM 6 HR/D 5 D/WK FOR 104 WK (STUDY DURATION: 104 WK)) “inactive; negative”.

On to `O=C(O)c1ccc([N+](=O)[O-])cc1`, for which the carcinogen call was “inactive; negative” (Species: MOUSE, Strain/Sex: B6C3F1/FEMALE, Route: ORAL, Dose: 0, 1250, 2500, 5000 PPM IN DIET FOR 103 WK (STUDY DURATION: 104 WK), Dose: 0, 1250, 2500, 5000 PPM IN DIET FOR 103 WK (STUDY DURATION: 104 WK)); “inactive; negative” (Species: MOUSE, Strain/Sex: B6C3F1/MALE, Route: ORAL, Dose: 0, 1250, 2500, 5000 PPM IN DIET FOR 103 WK (STUDY DURATION: 104 WK), Dose: 0, 1250, 2500, 5000 PPM IN DIET FOR 103 WK (STUDY DURATION: 104 WK)); “active; positive” (Species: RAT, Strain/Sex: F344/FEMALE, Route: ORAL, Dose: 0, 1250, 2500, 5000 PPM IN DIET FOR 103 WK (STUDY DURATION: 104 WK), Dose: 0, 1250, 2500, 5000 PPM IN DIET FOR 103 WK (STUDY DURATION: 104 WK), Tumor Site: Type of Lesion: CLITORAL GLAND: ADENOMA, ADENOMA OR CARCINOMA); “inactive; negative” (Species: RAT, Strain/Sex: F344/MALE, Route: ORAL, Dose: 0, 1250, 2500, 5000 PPM IN DIET FOR 103 WK (STUDY DURATION: 104 WK), Dose: 0, 1250, 2500, 5000 PPM IN DIET FOR 103 WK (STUDY DURATION: 104 WK)).
